Measurements as given in patent US4339461A, “N-Substituted 3-nitro-benzylamines” (Chevron Research Company, priority 1980, dated 1982).

Tests used:
[1] = system: Powdery mildew pathogen, Erysiphe polygoni; test: Fungicidal efficacy, control of Bean Powdery Mildew on sprayed bean seedlings; assay type: in vivo; conditions: for Fungicidal Efficacy - % Control, BPM (Bean Powdery Mildew): 250 ppm spray, inoculated one day later, about 10 days; for fungicidal activity on Bean Powdery Mildew (in words): Table I test
Text: The powdery mildew test was made using bean seedlings (variety Bountiful) with well-developed primary leaves. The pathogen was Erysiphe polygoni. […] The treated plants were inoculated one day after spray application of the test compound with the pathogen. […] The rate of infection on the leaves was made after about 10 days. The percent disease control provided by a given test compound was based on the disease reduction relative to untreated check plants. The results are reported in Table I. The test was repeated on Compound No. 1.

fungi = test: Fungicidal activity overall (tests of Examples 1 and 2, Table I); assay type: in vivo
[2] = system: Tomato Early Blight organism, Alternaria solani; test: Fungicidal efficacy, control of Tomato Early Blight on sprayed tomato seedlings; assay type: in vivo; conditions: for Fungicidal Efficacy - % Control, TEB (Tomato Early Blight): 250 ppm spray, about 12 days; for fungicidal activity on Tomato Early Blight (in words): Table I test
[3] = system: Tomato Late Blight, Phytophthora infestans; assay type: in vivo; conditions: 250 ppm spray; inoculated one day later; about 12 days
malaria = conditions: disclosed by Burkhalter et al, 1948; cited from earlier work

SMILES	Fungicidal Efficacy - % Control, BPM (Bean Powdery Mildew) [1]	fungicidal activity (in words) (fungi)	Fungicidal Efficacy - % Control, TEB (Tomato Early Blight) [2]	antimalarial activity (in words) (malaria)	other results
CCCN(CCC)Cc1cccc(F)c1 [Compound 4, reference compound]	0%	no fungicidal activity	0%	–	–
CS(=O)(=O)c1cccc(NCc2cccc([N+](=O)[O-])c2)c1 [Compound 7]	–	activity comparable to that of Compound 1	–	–	Fungicidal Efficacy - % Control, TLB (Tomato Late Blight) [3]: 75%
CCCN(CCC)Cc1cccc([N+](=O)[O-])c1 [Compound 1, N,N-Dipropyl-3-Nitro-Benzylamine]	86%	unexpected fungicidal activity	60%	–	% control, powdery mildew (repeat test) ([1]; 16 ppm): 0%; % control, powdery mildew (repeat test) ([1]; 40 ppm): 56%; % control, powdery mildew (repeat test) ([1]; 100 ppm): 83%; fungicidal activity on Bean Powdery Mildew (in words) [1]: unexpected fungicidal activity; % control, Tomato Early Blight (repeat test) ([2]; 16 ppm): 90%; % control, Tomato Early Blight (repeat test) ([2]; 40 ppm): 90%; % control, Tomato Early Blight (repeat test) ([2]; 100 ppm): 93%; fungicidal activity on Tomato Early Blight (in words) [2]: unexpected fungicidal activity
CSc1cccc(NCc2cccc([N+](=O)[O-])c2)c1 [Compound 5, N-(3'-methylthiophenyl)-3-nitro-benzylamine]	79%	activity comparable to that of Compound 1	–	–	–
CSc1cccc(N(Cc2cccc([N+](=O)[O-])c2)S(C)(=O)=O)c1 [Compound 6, N-(3-nitrobenzyl)-N-(3'-methylthiophenyl)-methane sulfonamide]	–	activity comparable to that of Compound 1	81%	–	Fungicidal Efficacy - % Control, TLB (Tomato Late Blight) [3]: 75%
CCN(CC)Cc1cccc([N+](=O)[O-])c1 [Compound 2, N,N-diethyl-3-nitro-benzylamine, reference compound]	0%	–	0%	antimalarial activity	fungicidal activity on Bean Powdery Mildew (in words) [1]: no fungicidal activity; fungicidal activity on Tomato Early Blight (in words) [2]: no fungicidal activity
CCCN(CCC)Cc1ccc([N+](=O)[O-])cc1 [Compound 3, N,N-dipropyl-4-nitro-benzylamine, reference compound]	0%	no fungicidal activity	0%	antimalarial activity	–
CCN(CC)Cc1ccc([N+](=O)[O-])cc1 [N,N-diethyl-4-nitro-benzylamine]	–	–	–	antimalarial activity	–
